Laboratory results reported in US20130303532A1, “IMIDAZOPYRAZINES FOR USE AS MPS-1 AND TKK INHIBITORS IN THE TREATMENT HYPERPROLIFERATIVE DISORDERS” (BAYER INTELLECTUAL PROPERTY GmbH, priority 2010, published 2013).

Molecular target: T1, human kinase Mps-1 (Homo sapiens, UniProt P33981)
T1 construct: N-terminally GST-tagged human full length recombinant Mps-1 kinase; GST (N); purchased Invitrogen, Karslruhe, Germany PV4071
T1 sequence (P33981 1-857): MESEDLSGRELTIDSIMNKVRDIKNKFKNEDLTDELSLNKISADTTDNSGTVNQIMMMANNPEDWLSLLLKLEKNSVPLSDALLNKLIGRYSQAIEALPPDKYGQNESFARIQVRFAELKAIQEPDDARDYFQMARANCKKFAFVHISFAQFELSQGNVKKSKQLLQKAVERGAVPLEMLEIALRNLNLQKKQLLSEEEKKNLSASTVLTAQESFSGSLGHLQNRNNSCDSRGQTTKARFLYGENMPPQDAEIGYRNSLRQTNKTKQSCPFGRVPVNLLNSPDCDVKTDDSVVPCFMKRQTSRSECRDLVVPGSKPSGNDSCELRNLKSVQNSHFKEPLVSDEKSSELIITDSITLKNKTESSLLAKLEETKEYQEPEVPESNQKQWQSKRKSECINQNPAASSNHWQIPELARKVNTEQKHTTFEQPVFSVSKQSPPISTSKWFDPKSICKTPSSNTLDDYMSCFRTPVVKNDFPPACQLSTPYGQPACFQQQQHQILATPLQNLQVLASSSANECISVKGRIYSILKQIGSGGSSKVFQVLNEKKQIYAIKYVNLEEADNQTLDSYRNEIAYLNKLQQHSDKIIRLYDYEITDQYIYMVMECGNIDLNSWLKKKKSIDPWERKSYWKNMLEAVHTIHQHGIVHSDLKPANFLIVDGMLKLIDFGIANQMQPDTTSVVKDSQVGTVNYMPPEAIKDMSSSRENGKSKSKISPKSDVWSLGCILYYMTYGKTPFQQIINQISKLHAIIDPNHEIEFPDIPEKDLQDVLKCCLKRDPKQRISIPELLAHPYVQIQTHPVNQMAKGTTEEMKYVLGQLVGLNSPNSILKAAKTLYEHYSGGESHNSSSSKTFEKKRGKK
Assay: Mps-1 kinase assay (TR-FRET)
Format: biochemical
Settings: Mps1 IC50 [nM], N-terminally GST-tagged human full length recombinant Mps-1; 10 μM ATP; 1 μM biotinylated peptide substrate; 60 min at 22° C.

## Cc1cc(-c2cnc3c(NCC(C)(C)O)nccn23)ccc1C(=O)NC1CC1 [Example 7-122, N-cyclopropyl-4-{8-[(2-hydroxy-2-methylpropyl)amino]imi-dazo[1,2-a]pyrazin-3-yl}-2-methylbenzamide]
  IC50: 171 nM

## Cc1cc(-c2cnc3c(NCc4ccc(Cl)s4)nccn23)ccc1C(=O)NC1CC1 [Example 7-123, 4-(8-{[(5-chlorothiophen-2-yl)methyl]amino}imi-dazo[1,2-a]pyrazin-3-yl)-N-cyclopropyl-2-methylbenzamide]
  IC50: 22.5 nM

## Cc1cc(-c2cnc3c(NCC4CCCCO4)nccn23)ccc1C(=O)NC1CC1 (stereo not drawn) [Example 7-124, N-cyclopropyl-2-methyl-4-{8-[(tetrahydro-2H-pyran-2-ylmethyl)amino]imi-dazo[1,2-a]pyrazin-3-yl}benzamide]
  IC50: 80.8 nM

## Cc1cc(-c2cnc3c(NC[C@@H](O)CO)nccn23)ccc1C(=O)NC1CC1 [Example 7-125, N-cyclopropyl-4-{8-[(2,3-dihydroxypropyl)amino]imi-dazo[1,2-a]pyrazin-3-yl}-2-methylbenzamide]
  IC50: 361 nM

## Cc1cc(-c2cnc3c(NCc4c(F)cccc4F)nccn23)ccc1C(=O)NC1CC1 [Example 7-127, N-cyclopropyl-4-{8-[(2,6-difluorobenzyl)amino]imi-dazo[1,2-a]pyrazin-3-yl}-2-methylbenzamide]
  IC50: 47.1 nM

## COc1cc(C(=O)NC2CC2)ccc1-c1cnc2c(NCC(C)C)nccn12 [Example 7-128, N-cyclopropyl-3-methoxy-4-{8-[(2-methylpropyl)amino]imi-dazo[1,2-a]pyrazin-3-yl}benzamide]
  IC50: 19.3 nM
